No end group written: not given here.
What was measured:
isolated rat heart = test: Modified BNPsp peptides, preconditioning in isolated rat heart (Example 6: 40 min global ischemia, 90 min reperfusion); conditions: preconditioned 30 minutes with 0.3 nmol/L; n=3
Experimental: This set of experiments assessed modified BNPsp(17-26) peptides. This experiment repeated the preconditioning work outlined in the isolated rat heart model Examples, but with C-terminal ablated and an N-terminal extended version of BNPsp(17-26). Hearts were preconditioned with 30 minute doses of 0.3 nmol/L BNPsp(16-26) and BNPsp(17-24) prior to 40 minutes of global ischemia and 90 minutes reperfusion. Cardiac contractile and perfusion pressure indices were recorded.

in vivo = conditions: sheep, iv
Experimental: In this set of experiments, four normal healthy sheep were infused with human BNPsp(17-26) at 100-1000 ug/kg·min−1 to document any effects upon normal blood pressure, heart rate or renal function. This experiment was carried out to determine achieved circulating levels of BNPsp(17-26) in response to the dose given and to document any significant effects upon haemodynamic, renal or hormonal indices.

normal, healthy sheep = conditions: in vivo
Text: Such a response is indicative of a well tolerated agent. […] This is a favourable profile in normal health.

Sequence	haemodynamic protective profile (developed pressure) (isolated rat heart)	half-life (in vivo)	haemodynamics, renal function or circulating biomarkers (normal, healthy sheep)
LHLAFLGG (listed as Homo sapiens) [BNPsp(17-24), modified peptide with two C-terminal amino acids removed]	protective effect		
LHLAFLGGRS [BNPsp(17-26), LHLAFLGGRS]		< 1 min	no detectable changes

Source: patent US9783574B2, “Cardiovascular therapeutics” (Otago Innovation Limited, priority 2011, dated 2017)
